Data on nine molecules can be found in ChEMBL document CHEMBL1130611, “Synthesis and antibacterial activity of 2-alkoxy penems” (1998).

For one test, the system named is Salmonella. The test is described as follows: Compound was tested in vitro for antibacterial activity against Salmonella. It counts as functional.
For a further test, the system named is Escherichia coli. The test is described as follows: Compound was tested in vitro for antibacterial activity against Escherichia coli. It counts as functional.
For a further test, the system named is Bacillus subtilis. Kind of test: Compound was tested in vitro for antibacterial activity against Bacillus subtilis. It counts as functional.
Test [1] can be described thus: Compound was tested in vitro for inhibition of gram negative organisms. It counts as functional. The settings on record: Bacteria.
A short description of test [2]: Compound was tested in vitro for inhibition of gram positive organisms. It counts as functional. As to conditions: Bacteria.
In the next test the test system is Morganella. The test is described as follows: Compound was tested in vitro for antibacterial activity against Morganella. It counts as functional.
A further test deals with Staphylococcus. Kind of test: Compound was tested in vitro for antibacterial activity against Staphylococcus. It counts as functional.
A further test relates to Micrococcus luteus. The test is described as follows: Compound was tested in vitro for antibacterial activity against Sarcina lutea. It counts as functional, sarcinea lutea.
Another test deals with Enterobacter. Kind of test: Compound was tested in vitro for antibacterial activity against Enterobacter. It counts as functional.
For a further test, the system named is Serratia. Kind of test: Compound was tested in vitro for antibacterial activity against Serratia. It counts as functional.
A further test deals with Enterococcus faecalis. The test is described as follows: Compound was tested in vitro for antibacterial activity against Enterococcus faecalis. It counts as functional.
In another test the test system is Providencia. Kind of test: Compound was tested in vitro for antibacterial activity against Providencia. It counts as functional.
In the next test the test system is Klebsiella. The test is described as follows: Compound was tested in vitro for antibacterial activity against Klebsiella. It counts as functional.

Regarding `CCCCOC1=C(C(=O)[O-])N2C(=O)[C@H]([C@@H](C)O)[C@H]2S1.[Na+]`, the MIC (in general, the smallest concentration in the dilution series that meets the test's criterion for growth inhibition) in the test on Salmonella is at least 36.8 µg/mL; in the test with Escherichia coli, at least 25.9 µg/mL; in the test on Bacillus subtilis, 1 µg/mL; in test [1] it was 53 µg/mL; in test [2] it was 2.26 µg/mL; in the test on Morganella it was at least 90.5 µg/mL. Moreover, the MIC against Staphylococcus is 1.51 µg/mL; in the test on Micrococcus luteus, 1 µg/mL; in the test on Enterobacter, at least 128 µg/mL; in the test with Serratia, at least 128 µg/mL; against Enterococcus faecalis, 32 µg/mL; against Providencia, at least 80.6 µg/mL. In the test on Klebsiella, this molecule showed an MIC of at least 32 µg/mL.
`CCSC1=C(C(=O)[O-])N2C(=O)[C@H]([C@@H](C)O)[C@H]2S1.[Na+]`: the MIC in test [1] is 0.7 µg/mL; in test [2], 0.1 µg/mL.
`C[C@@H](O)[C@H]1C(=O)N2C(C(=O)[O-])=C(OCCN)S[C@H]12.[Na+]`: the MIC in the test with Salmonella was at least 128 µg/mL; with Escherichia coli, at least 128 µg/mL; against Bacillus subtilis it was 8 µg/mL; in [1], at least 128 µg/mL; in test [2], 27.3 µg/mL; with Morganella, at least 128 µg/mL. Besides, the MIC against Staphylococcus was 27.4 µg/mL; in the test with Micrococcus luteus, 32 µg/mL; in the test with Enterobacter it was at least 128 µg/mL; in the test with Serratia, at least 128 µg/mL; in the test with Enterococcus faecalis, 45.3 µg/mL; in the test on Providencia it was at least 128 µg/mL. In the test on Klebsiella, the MIC was at least 128 µg/mL.
Turning to `COC1=C(C(=O)[O-])N2C(=O)[C@H]([C@@H](C)O)[C@H]2S1.[Na+]`, the MIC was determined as 6.96 µg/mL against Salmonella; 10.4 µg/mL with Escherichia coli; 1.41 µg/mL with Bacillus subtilis; 16.6 µg/mL in test [1]; 3.2 µg/mL in test [2]; 45.3 µg/mL in the test on Morganella. The MIC with Staphylococcus stood at 1.51 µg/mL; in the test with Micrococcus luteus, 2 µg/mL; against Enterobacter, 24.2 µg/mL; against Serratia, 29.6 µg/mL; in the test with Enterococcus faecalis it was 32 µg/mL; against Providencia, 39.4 µg/mL. This molecule came in with an MIC in the test on Klebsiella of 8.98 µg/mL.
With `C[C@@H](O)[C@H]1C(=O)N2C(C(=O)[O-])=C(OCCOC(N)=O)S[C@H]12.[Na+]`, the MIC turned out to be 4 µg/mL against Salmonella; 6.62 µg/mL with Escherichia coli; 1 µg/mL against Bacillus subtilis; 8.3 µg/mL in test [1]; 2.07 µg/mL in test [2]; 16 µg/mL against Morganella. The MIC with Staphylococcus was found to be 1.57 µg/mL; with Micrococcus luteus, 0.5 µg/mL; against Enterobacter, 10.1 µg/mL; in the test with Serratia, 16 µg/mL; in the test on Enterococcus faecalis it was 64 µg/mL; in the test with Providencia, 27.9 µg/mL. Also, the MIC in the test with Klebsiella came to 4.92 µg/mL.
For `CCOC1=C(C(=O)[O-])N2C(=O)[C@H]([C@@H](C)O)[C@H]2S1.[Na+]`, the minimal inhibitory concentration (MIC) in the test on Salmonella came to 4.6 µg/mL; against Escherichia coli, 6.82 µg/mL; in the test on Bacillus subtilis it was 1 µg/mL; in [1], 12.1 µg/mL; in [2], 2.8 µg/mL; against Morganella, 45.3 µg/mL. The MIC in the test on Staphylococcus was 3.12 µg/mL; in the test on Micrococcus luteus, 1 µg/mL; against Enterobacter it was at least 24.2 µg/mL; against Serratia, at least 22.6 µg/mL; in the test on Enterococcus faecalis, 64 µg/mL; with Providencia it was 39.4 µg/mL. This molecule also displayed an MIC in the test with Klebsiella of 5.04 µg/mL.
On to `C[C@@H](O)[C@H]1C(=O)N2C(C(=O)[O-])=C(SCCOC(N)=O)S[C@H]12.[Na+]`, for which the MIC in test [1] was found to be 0.5 µg/mL; in [2], 0.2 µg/mL.
Regarding `CCCOC1=C(C(=O)[O-])N2C(=O)[C@H]([C@@H](C)O)[C@H]2S1.[Na+]`, the MIC in the test with Salmonella came to 10.6 µg/mL; against Escherichia coli, 14.4 µg/mL; in the test on Bacillus subtilis, 1 µg/mL; in test [1], 31.6 µg/mL; in test [2], 2.44 µg/mL; with Morganella, 64 µg/mL. Moreover, the MIC was 1.66 µg/mL with Staphylococcus; 1 µg/mL with Micrococcus luteus; at least 73.5 µg/mL against Enterobacter; at least 87.1 µg/mL in the test with Serratia; 32 µg/mL in the test with Enterococcus faecalis; at least 64 µg/mL in the test on Providencia. This molecule yielded an MIC against Klebsiella of 20.2 µg/mL.
As for `C[C@@H](O)[C@H]1C(=O)N2C(C(=O)[O-])=C(SCCN)S[C@H]12.[Na+]`, the MIC amounted to 3.6 µg/mL in [1] and 0.2 µg/mL in test [2].
